# Experimental data published in US6316190A (The United States of America as represented by the …).
# Tests used:
# [1] = system: recombinant HIV-1 NC protein; experiment: Surface plasmon resonance (BIAcore) binding of NC to immobilized biotinylated oligonucleotides; conditions: for NC binding to oligonucleotide (level and stability during washout): oligonucleotide on chip, 0.15M NaCl; for affinity for HIV-1 NC protein: oligonucleotides including the subsequence
# Procedure: In a preferred embodiment, the assay format is surface plasmon resonance (SPR). The Kd and kinetics of the trial compound-protein interaction are determined in a BIAcore, a biosensor based on surface plasmon resonance. For this technique, protein or trial compound is coupled to a derivatized sensor chip capable of detecting changes in mass. When trial compound or protein is passed over the sensor chip, it binds to the trial compound or protein coupled to the chip, resulting in an increase in mass which is quantifiable. Measurement of the rate of association as a function of trial compound or protein concentration can be used to calculate the association rate constant (kon). After the association phase, buffer is passed over the chip and the rate of dissociation (koff) is determined. Kon is typically measured in the range 1.0×10^2 to 5.0×10^6 and koff in the range 1.0×10^-1 to 1.0×10^-6. The equilibrium constant Kd is often calculated as koff/kon and thus is typically measured in the range 10^-5 to 10^-12. Affinities measured in this manner correlate well with affinities measured in solution by fluorescence quench titration. See, Fisher and Fivash (1994) Curr. Opin. Biotechnol. 5:389-395; Fisher et al. (1994) Methods 6:389-395; Johnsson et al., (1991) Anal. Biochem., 198:268-277; Karlsson et al., (1991) J. Immunol. Methods., 145:229-240; and Johnsson et al., (1991) Anal. Biochem. 198:268-277.
# NC has traditionally been described as a single-stranded nucleic acid-binding protein. To determine whether this conclusion is accurate under SPR conditions, we initially measured binding of recombinant HIV-1 NC to a single-stranded 28-base oligodeoxynucleotide. The sequence of this oligonucleotide contains 20 bases from the 3' end of HIV-1 proviral DNA (i.e., the 3' end of U5). Surface plasmon resonance (SPR) analysis was performed with biotinylated DNA immobilized at its 3' end.
# This possibility was analyzed systematically in the following experiment. Four SPR chips were made containing TGTG (SEQ ID NO:3) at different densities. For each chip, the amount of streptavidin (which holds the biotinylated oligonucleotide on the chip) was measured by SPR analysis before the addition of TGTG (SEQ ID NO:3). The amount of TGTG (SEQ ID NO:3) added to each chip was then quantitated by SPR. Thus, for each chip the ratio of TGTG (SEQ ID NO:3) to streptavidin was empirically determined. Since a streptavidin molecule has four binding sites for biotinylated ligands, the number of streptavidin molecules occupied by 0, 1, 2, 3, or 4 oligonucleotides could be calculated from this ratio, using binomial expansion. Finally, the ability of each chip to bind NC with high affinity was determined by SPR.
# Another important aspect of the experiments described here is that the analyses were performed in 0.15M NaCl. The sequence-independent electrostatic interaction between the positively charged NC protein and nucleic acids is obviously much lower at this moderate ionic strength than in more dilute buffers, so that the differences in affinity for different oligonucleotides are more apparent. […] The additional affinity of NC for a preferred sequence was shown by this analysis to be largely hydrophobic.
# HIV-1 NC protein = experiment: Tryptophan fluorescence titration of NC with oligonucleotide, then NaCl dissociation; format: binding; conditions: for K° relative to expected value (weighted average of corresponding homopolymers) / hydrophobic component, apparent affinity constant at 1M NaCl (K°): 1M NaCl; for apparent affinity of NC: fluorescence
# [2] = system: 2.2 finger swap mutant protein; experiment: Fluorescence binding of 2.2 finger swap mutant protein; design: species or system HIV-1; conditions: versus wild-type protein
# [3] = system: "finger swap" mutants of NC (1.1, 2.2, 2.1); experiment: SPR binding of "finger swap" mutant NC proteins to the 5' site; design: species or system HIV-1
# HIV-1 = conditions: cited from earlier work
# [4] = system: synthetic peptide with a HIV-1 CCHC zinc finger; conditions: cited from earlier work
# [5] = biological target: T1, HIV-1 nucleocapsid protein (NC), wild type (Human immunodeficiency virus 1, UniProt P12493 P12493:378-432); experiment: SPR; four NC per oligo; conditions: label: biotin
# [6] = biological target: T1, HIV-1 nucleocapsid protein (NC), wild …; experiment: SPR; conditions: label: 3'-biotin
# [7] = biological target: T1, HIV-1 nucleocapsid protein (NC), wild …; experiment: SPR; TGTG replaced by AAAA; no high-affinity binding; conditions: label: biotin
# [8] = biological target: T1, HIV-1 nucleocapsid protein (NC), wild …; experiment: SPR; negligible binding; conditions: label: biotin
# [9] = biological target: T1, HIV-1 nucleocapsid protein (NC), wild …; experiment: SPR; TGTG sufficient for high-affinity binding in A context; conditions: label: biotin
# [10] = biological target: T1, HIV-1 nucleocapsid protein (NC), wild …; experiment: SPR; 0.15 M NaCl; most stable of three subsites; relatively high affinity also by fluorescence; conditions: label: biotin
# [11] = biological target: T1, HIV-1 nucleocapsid protein (NC), wild …; experiment: SPR; higher level and slower washout than site I DNA
# [12] = biological target: T1, HIV-1 nucleocapsid protein (NC), wild …; experiment: SPR; 0.15 M NaCl; tight binding mode (slow washout); conditions: label: biotin (SPR)
# [13] = biological target: T1, HIV-1 nucleocapsid protein (NC), wild …; experiment: SPR; 0.15 M NaCl; second independent mode (fast-released fraction); conditions: label: biotin (SPR)
# [14] = biological target: T1, HIV-1 nucleocapsid protein (NC), wild …; experiment: SPR; two NC per oligo; conditions: label: biotin
# [15] = quantitative analysis of SPR data
molecule,measurement,setting,value
d(T)10,NC binding to oligonucleotide (level and stability during washout),[1]; SPR,detectable binding
TGTGTGTG [d(TG)4],K° relative to expected value (weighted average of corresponding homopolymers),HIV-1 NC protein,145 times
same,"hydrophobic component, apparent affinity constant at 1M NaCl (K°)",HIV-1 NC protein,2.3×10^4
same,difference in binding energy,"HIV-1 NC protein; d(TG)4 versus d(IT)4, inferred from difference in affinity",~ 1 kcal/mole
same,apparent affinity of NC,HIV-1 NC protein,highest affinity
same,dependence of binding on oligonucleotide density,[1]; SPR,essentially independent
same,number of NC molecules bound per oligonucleotide,[1]; SPR,one
same,"Ka, binding system released more rapidly during washout",[1]; [15],1×10^7
same,"Ka, binding system responsible for slow washout",[1]; [15],2e+09 M⁻¹
GACTTGTGG [Site I],apparent affinity of NC,HIV-1 NC protein,relatively high affinity
same,apparent affinity of 2.2 mutant,[2],lower apparent affinity than that of wild-type protein
same,dependence of binding on oligonucleotide density,[1]; SPR,essentially independent
same,NC binding to oligonucleotide (level and stability during washout),[1]; SPR,most stable binding
same,binding of mutant proteins,[3],some binding
same,washout of mutant proteins,[3]; versus wild-type protein,washed out considerably faster than the wild-type protein
AAAATGTGAA,NC binding to oligonucleotide (level and stability during washout),[1]; SPR,binding
GACTTGTGGA,affinity for HIV-1 NC protein,[1],nanomolar range
(TG)5,number of NC molecules bound per oligonucleotide,[1]; SPR,two
(dT)9,"hydrophobic component, apparent affinity constant at 1M NaCl (K°)",HIV-1 NC protein,5×10^1
GCAGTGCAT [site III],NC binding to oligonucleotide (level and stability during washout),[1]; SPR,"significant binding, but at a lower level and a more rapid loss during the washout than was observed with site I"
GTGTG,number of NC molecules bound per oligonucleotide,[1]; SPR,single
same,NC binding to oligonucleotide (level and stability during washout),[1]; SPR,high-affinity binding sites
AAAATCTCTA [site II],NC binding to oligonucleotide (level and stability during washout),[1]; SPR,negligible binding
"NC(=O)c1cccc(N=O)c1 [NOBA, 3-nitroso benzamide]",effect on virus,HIV-1,viral inactivation
same,effect on zinc of zinc finger peptide,[4],loss of zinc
TGTGT,number of NC molecules bound per oligonucleotide,[1]; SPR,single
same,NC binding to oligonucleotide (level and stability during washout),[1]; SPR,high-affinity binding sites
TGTGTG,affinity for HIV-1 NC protein,[1],nanomolar range
d(G)9,apparent affinity of NC,HIV-1 NC protein,higher than that for the other hompolymeric oligodeoxynucleotides
same,extent of binding and retention of NC during washout relative to site 1,[1]; SPR,far lower than seen with site 1 sequences
same,NC binding to oligonucleotide (level and stability during washout),[1]; SPR,clear preference
GACUUGUGG (chemistry not given here),NC binding to oligonucleotide (level and stability during washout),[1]; SPR,at a higher level and washes out more slowly than the binding to the DNA
same,affinity for HIV-1 NC protein,[1],nanomolar range
d(IT)4,K° relative to expected value (weighted average of corresponding homopolymers),HIV-1 NC protein,10 times
"TGTG (DNA, backbone not given here)",high-affinity binding of NC,[1]; highest oligonucleotide density on chip (FIG. 6D),high-affinity binding is achieved
same,initial binding of NC,[1]; oligonucleotide at low density (FIG. 6A),substantial degree of initial binding
d(GA)4,K° relative to expected value (weighted average of corresponding homopolymers),HIV-1 NC protein,coincided with the value that would be predicted
(TG)10,number of NC molecules bound per oligonucleotide,[1]; SPR,four
TGTGTGTGTGTGTGTGTGTG (ssDNA) [(TG)10],binding result,[5],binds
GACTTGTGGAAAATCTCTAGCAGTGCAT (ssDNA) [28-mer ss oligodeoxynucleotide (HIV-1 U5 3' end)],binding result,[6],binds
GACTAAAAGA (ssDNA),binding result,[7],no binding
AAAATCTCTA (ssDNA) [site II],binding result,[8],no binding
AAAATGTGAA (ssDNA),binding result,[9],binds
GACTTGTGG (ssDNA) [site I],binding result,[10],binds
GACUUGUGG (ssRNA) [site I RNA],binding result,[11],binds
TGTGTGTG (ssDNA) [d(TG)4],Ka,[12],2e+09 M⁻¹
same,Ka,[13],1e+07 M⁻¹
TGTGTGTGTG (ssDNA) [(TG)5],binding result,[14],binds
